# Earlier results, collected in US20200254002A1, “COMBINATION THERAPIES FOR TREATING MUSCULAR DYSTROPHY” (SAREPTA THERAPEUTICS, INC., priority 2017, published 2020).
# Entries after “also recorded” stand apart in the source; their conditions may differ. Read-outs that look alike come from different tables or passages of the source.
# Legend:
# [1] = phase I clinical program in adults
# cNF-κB = conditions: in vitro
# ryanodine receptor = conditions: patient cells and a mouse model of DMD
# dystrophin = conditions: DMD patients
# [2] = test system: exon 53 of dystrophin pre-mRNA; conditions: for Exon skipping in DMD patients: all 25 patients, at least 48 weekly doses
# [3] = test system: normal human skeletal muscle cells or muscle cells from DMD patients; conditions: RT-PCR and Western blot
# immune response = conditions: rat, in vivo
# human DMD transcript = conditions: hDMD mouse model
# [4] = Part 1 patients, 60-76 weeks dosing
# [5] = Part 2 patients, ~48-51 weeks dosing
# [6] = Part 2/Pl patients, 48-51 weeks
compound,measurement,setting,value
"CC/C=C\C/C=C\C/C=C\C/C=C\C/C=C\C/C=C\CCC(=O)NCCNC(=O)c1ccccc1O [CAT-1004, N-(2-[(4Z,7Z,10Z,13Z,16Z,19Z)-docosa-4,7,10,13,16,19-hexaenamido]ethyl)-2-hydroxybenzamide]",Safety and tolerability,[1],"safe, well tolerated"
CC/C=C\C/C=C\C/C=C\C/C=C\C/C=C\CCCC(=O)NCCNC(=O)c1ccccc1O [CAT-1041],Dystrophic phenotype,"NF-κB p65; GRMD dog, long-term treatment",improves the phenotype
same,Diaphragm function,NF-κB p65; dog DMD model,improved diaphragm function
same,Exercise endurance,Mdx mice; mdx mice,increased exercise endurance
same,Inflammation and fibrosis,Mdx mice; mdx mice,reduced inflammation and fibrosis
same,Muscle fibrosis,"Mdx mice; mdx mice, long-term studies",reduces muscle fibrosis
same,Muscle function,"Mdx mice; mdx mice, long-term studies",preserves muscle function
same,Skeletal muscle weight,"Mdx mice; mdx mice, long-term studies",increases skeletal muscle weight
same,Dystrophic phenotype,"Mdx mice; mdx mouse, long-term treatment",improves the phenotype
same,Diaphragm function,Mdx mice; mouse DMD model,improved diaphragm function
same,cNF-κB activation,cNF-κB,inhibit cNF-κB activation in vitro
O=C1CN(/N=C/c2ccc(-c3ccc([N+](=O)[O-])cc3)o2)C(O)=N1 [dantrolene],Antisense-mediated exon skipping,ryanodine receptor,enhance antisense-mediated exon skipping
"all-P-ambo-[P,2′,3′-trideoxy-P-(dimethylamino)-2′,3′-imino-2′,3′-seco](2′a[…]5′)(GTTGCCTCCGGTTCTGAAGGTGTTC) 5′-[4-({2-[2-(2-hydroxyethoxy)ethoxy]ethoxy}carbonyl)-N,N-dimethylpiperazine-1-phosphonamidate] [SRP-4053]","Mean Change from baseline (SD), dystrophin by Western blot",dystrophin protein; All patients,0.92 (1.01)
same,"On treatment Mean % normal (SD), dystrophin by Western blot",dystrophin protein; All patients,1.02 (1.03) % normal
same,Dystrophin protein as measured by Western blot,"dystrophin protein; DMD patients, over baseline",statistically significant increase over baseline in dystrophin protein
same,"Mean Change from baseline (SD), dystrophin by Western blot",dystrophin protein; [4],1.29 (1.51)
same,"On treatment Mean % normal (SD), dystrophin by Western blot",dystrophin protein; [4],1.40 (1.57) % normal
same,"Mean Change from baseline (SD), dystrophin by Western blot",dystrophin protein; [5],0.75 (0.67)
same,"On treatment Mean % normal (SD), dystrophin by Western blot",dystrophin protein; [5],0.84 (0.64) % normal
same,"Baseline Mean % normal (SD), dystrophin by Western blot",dystrophin protein; All patients,0.09 (0.07) % normal
same,"Baseline Mean % normal (SD), dystrophin by Western blot",dystrophin protein; [4],0.10 (0.09) % normal
same,"Baseline Mean % normal (SD), dystrophin by Western blot",dystrophin protein; [5],0.09 (0.06) % normal
same,"Mean fiber intensity, de novo dystrophin",dystrophin; above baseline,statistically significant increase (p<0.001) above baseline in de novo dystrophin
same,Sarcolemmal dystrophin localization,dystrophin; listed as Golodirsen,correctly localized to the sarcolemma membrane; also recorded: observed in all patients
same,"Decrease from Baseline (RT-PCR, patients)",[2]; All patients,0
same,Fold Increase (RT-PCR exon skipping),[2]; All patients,7.3
same,"Increase > 0.1 from Baseline (RT-PCR, patients)",[2]; All patients,25 (100.0%)
same,"Increase from Baseline (RT-PCR, patients)",[2]; All patients,25 (100.0%)
same,"No Increase > 0.1 from Baseline (RT-PCR, patients)",[2]; All patients,0
same,"Unchanged from Baseline (RT-PCR, patients)",[2]; All patients,0
same,"Decrease from Baseline (RT-PCR, patients)","[2]; Part 1 patients, 60-76 weeks",0
same,"Increase > 0.1 from Baseline (RT-PCR, patients)","[2]; Part 1 patients, 60-76 weeks",8 (100.0%)
same,"Increase from Baseline (RT-PCR, patients)","[2]; Part 1 patients, 60-76 weeks",8 (100.0%)
same,"No Increase > 0.1 from Baseline (RT-PCR, patients)","[2]; Part 1 patients, 60-76 weeks",0
same,"Unchanged from Baseline (RT-PCR, patients)","[2]; Part 1 patients, 60-76 weeks",0
same,"Decrease from Baseline (RT-PCR, patients)",[2]; [6],0
same,"Increase > 0.1 from Baseline (RT-PCR, patients)",[2]; [6],17 (100.0%)
same,"Increase from Baseline (RT-PCR, patients)",[2]; [6],17 (100.0%)
same,"No Increase > 0.1 from Baseline (RT-PCR, patients)",[2]; [6],0
same,"Unchanged from Baseline (RT-PCR, patients)",[2]; [6],0
same,Exon skipping in DMD patients,[2],increase over baseline levels in exon skipping
same,Exon skipping in DMD patients,[2]; listed as Golodirsen,observed in all patients
eteplirsen,Exon 51 skipping in vitro,[3],potent inducer of exon 51 skipping
same,Effect on the immune response,immune response,no adverse effect on the immune response
same,Exon 51 skipping in vivo,human DMD transcript,confirmed in vivo
